In ChEMBL document CHEMBL1147534, “Examination of the 1,4-disubstituted azetidinone ring system as a template for combretastatin A-4 conformationally restricted analogue design” (Bioorg Med Chem Lett, 2004) one finds IC50 data, which are given here for 23 molecules.

One test has as its system IMR-32. Nature of the test: In vitro cytotoxicity against human cancerous neuroblastoma cells (IMR-32). It is filed as functional, cell-based.
The subject of another test is HCT-116. Put plainly: In vitro cytotoxicity against human colon carcinoma (HCT116) tumor cell line. The format is functional, cell-based.
Test [1] has as its system MCF7. Put plainly: In vitro cytotoxicity against human breast carcinoma (MCF-7) tumor cell line. The format is functional, cell-based.
Another test deals with HeLa. Nature of the test: In vitro cytotoxicity against human cervix adenocarcinoma (HeLa) tumor cell line. The format is functional, cell-based.
In a further test the test system is CFPAC-1. Put plainly: In vitro cytotoxicity against human pancreatic cancer (CFPAC-1) tumor cell line. It is filed as functional, cell-based.
A further test has as its system MOLT-4. Nature of the test: In vitro cytotoxicity against human leukemia (MOLT-4) cell line. It is filed as functional, cell-based.
In another test the test system is T98G. Nature of the test: In vitro cytotoxicity against human glioblastoma (T-98G) tumor cell line. The format is functional, cell-based.
The test system of another test is DU-145. Nature of the test: In vitro cytotoxicity against human Prostate carcinoma (DU145) tumor cell line. The format is functional, cell-based.
The next test relates to NCI-H69. Put plainly: In vitro cytotoxicity against human cancerous cells (NCI-H69) was determined. The format is functional, cell-based.
The test system of another test is DLD-1. Put plainly: In vitro cytotoxicity against human colon adenocarcinoma (DLD-1) tumor cell line. The format is functional, cell-based.
A further test relates to AR-42J cell line. Nature of the test: In vitro cytotoxicity against rat pancreatic (AR-42J) tumor cell line. The format is functional, cell-based.
The next test deals with ACHN. Nature of the test: In vitro cytotoxicity against human renal adenocarcinoma (ACHN) tumor cell line. The format is functional, cell-based.
The next test has as its system NCI-H460. Put plainly: In vitro cytotoxicity against human lung carcinoma (NCI-H460) tumor cell line. The format is functional, cell-based.
Test [2] has as its system MCF7. Nature of the test: In vitro cytotoxicity against human cancerous cells (MCF-7) was determined. It is filed as functional, cell-based.
The subject of a further test is CHO-K1. Put plainly: In vitro cytotoxicity against chinese hamster ovary (CHO-K1) tumor cell line. The format is functional, cell-based, Cricetulus griseus.

For the molecule `COc1ccc2cc(C3C(OC(C)=O)C(=O)N3c3cc(OC)c(OC)c(OC)c3)ccc2c1` (configuration not stated), in the test on IMR-32 (Homo sapiens, IMR-32), the IC50 was above 1000 nM.

`COc1ccc(C2C(OC(C)=O)C(=O)N2c2cc(OC)c(OC)c(OC)c2)cc1` (configuration not stated) gave an IC50 in the test on IMR-32 (Homo sapiens, IMR-32) of 251 nM. That is a sub-micromolar value.

`COc1cc(N2C(=O)C(O)C2c2ccc([N+](=O)[O-])o2)cc(OC)c1OC` (configuration not stated) showed an IC50 in the test with IMR-32 (Homo sapiens, IMR-32) above 1000 nM.

`COc1ccc(C2C(O)C(=O)N2c2cc(OC)c(OC)c(OC)c2)cc1N` (configuration not stated): the IC50 in the test on HCT-116 turned out to be 140 nM; in the test on MCF7 [1], 55 nM; in the test with HeLa, 63.9 nM; in the test with CFPAC-1, 50.2 nM; in the test on MOLT-4, 71.7 nM; in the test with T98G, 109 nM. The IC50 worked out at 380 nM with DU-145; 25 nM in the test on NCI-H69; 130 nM in the test with DLD-1; 62.1 nM in the test with AR-42J cell line; 91.2 nM in the test with ACHN; 184 nM with NCI-H460. Further, the IC50 in the test with MCF7 [2] is 81 nM; in the test on IMR-32 (Homo sapiens, IMR-32), 37 nM; with IMR-32 (imr-32), 38.3 nM; in the test on CHO-K1 (Cricetulus griseus, CHO-K1), 544 nM; with CHO-K1 (cho-k1), 411 nM.

In the test on IMR-32 (Homo sapiens, IMR-32), `COc1cc(N2C(=O)C(OC)C2c2ccc3c(c2)OCO3)cc(OC)c1OC` (configuration not stated) showed an IC50 above 1000 nM.

Molecule `COc1ccc(C2C(OC)C(=O)N2c2cc(OC)c(OC)c(OC)c2)cc1N` (configuration not stated) displayed an IC50 in the test on IMR-32 (Homo sapiens, IMR-32) above 1000 nM.

The molecule `COc1ccc(C2C(O)C(=O)N2c2cc(OC)c(OC)c(OC)c2)cn1` (configuration not stated) yielded an IC50 in the test with IMR-32 (Homo sapiens, IMR-32) above 1000 nM.

In the case of `COc1cc(N2C(=O)C(OC(C)=O)C2c2ccc(N)o2)cc(OC)c1OC` (configuration not stated), the IC50 with IMR-32 (Homo sapiens, IMR-32) was above 1000 nM.

`COc1ccc(C2C(O)C(=O)N2c2cc(OC)c(OC)c(OC)c2)cc1` (configuration not stated): the IC50 in the test with NCI-H69 amounted to 47 nM; in the test with MCF7 [2] it was 62 nM; in the test with IMR-32 (Homo sapiens, IMR-32) it was 33 nM; with CHO-K1 (Cricetulus griseus, CHO-K1), 509 nM.

`COc1cc(N2C(=O)C(OC(C)=O)C2c2ccc([N+](=O)[O-])o2)cc(OC)c1OC` (configuration not stated): in the test on IMR-32 (Homo sapiens, IMR-32), the IC50 came to 811 nM.

As to `COc1cc(N2C(=O)C(OC(C)=O)C2c2ccc3c(c2)OCO3)cc(OC)c1OC` (configuration not stated), half-maximal inhibition in the test with IMR-32 (Homo sapiens, IMR-32) (IC50) was put at 910 nM.

`COc1ccc(N2C(=O)C(OC(C)=O)C2c2cc(OC)c(OC)c(OC)c2)cc1` (configuration not stated): in the test on IMR-32 (Homo sapiens, IMR-32), the IC50 was above 1000 nM.

Consider `COc1cc(N2C(=O)C(O)C2c2ccc3c(c2)OCO3)cc(OC)c1OC` (configuration not stated), for which the IC50 worked out at 950 nM in the test on HCT-116; 544 nM in the test on MCF7 [1]; 546 nM with HeLa; 885 nM with CFPAC-1; 398 nM in the test with MOLT-4; 800 nM with T98G. The IC50 with DU-145 is 3160 nM; in the test with DLD-1 it was 905 nM; with AR-42J cell line it was 1480 nM; with ACHN, 2120 nM; with NCI-H460, 1440 nM; in the test with IMR-32 (Homo sapiens, IMR-32), 473 nM. For the same molecule, the IC50 was 445 nM with IMR-32 (imr-32) and 891 nM in the test on CHO-K1 (Cricetulus griseus, CHO-K1).

`COc1cc(N2C(=O)C(OC(C)=O)C2c2ccc(N(C)C)cc2)cc(OC)c1OC` (configuration not stated) had an IC50 in the test with IMR-32 (Homo sapiens, IMR-32) of 520 nM. In other words, the sub-micromolar range.

As to `COc1ccc(C2C(OC)C(=O)N2c2cc(OC)c(OC)c(OC)c2)cc1[N+](=O)[O-]` (configuration not stated), the IC50 is above 10000 nM in the test with HCT-116; above 10000 nM in the test with MCF7 [1]; above 10000 nM in the test with HeLa; above 10000 nM in the test on CFPAC-1; above 10000 nM in the test on MOLT-4; above 5000 nM with T98G. The half-maximal inhibitory concentration (IC50) with DU-145, in the test on DLD-1, in the test with AR-42J cell line, with ACHN, with NCI-H460 and in the test on IMR-32 (imr-32) was above 10000 nM in each case. The molecule further showed an IC50 in the test on CHO-K1 (Cricetulus griseus, CHO-K1) above 10000 nM.

`COc1ccc(N2C(=O)C(O)C2c2cc(OC)c(OC)c(OC)c2)cc1` (configuration not stated): the IC50 with IMR-32 (Homo sapiens, IMR-32) is above 1000 nM.

Regarding `COc1ccc(C2C(OC(C)=O)C(=O)N2c2cc(OC)c(OC)c(OC)c2)cc1[N+](=O)[O-]` (configuration not stated), the concentration for half-maximal inhibition (IC50) in the test on HCT-116 amounted to 526 nM; with MCF7 [1], 105 nM; in the test with HeLa it was 202 nM; in the test with CFPAC-1, 197 nM; in the test with MOLT-4, 350 nM; in the test on T98G, 144 nM. Moreover, the IC50 in the test with DU-145 is 479 nM; with DLD-1, 326 nM; with AR-42J cell line, 582 nM; in the test with ACHN, 595 nM; in the test with NCI-H460 it was 393 nM; with IMR-32 (Homo sapiens, IMR-32), 123 nM. Also, it took 473 nM to reach half-maximal inhibition in the test on CHO-K1 (Cricetulus griseus, CHO-K1) (IC50).

Take `COc1ccc(C2C(OC(C)=O)C(=O)N2c2cc(OC)c(OC)c(OC)c2)cn1` (configuration not stated): the IC50 in the test on IMR-32 (Homo sapiens, IMR-32) is above 1000 nM.

For the molecule `COc1ccc(C2C(OC(C)=O)C(=O)N2c2cc(OC)c(OC)c(OC)c2)cc1N` (configuration not stated), the IC50 is 368 nM in the test with HCT-116; 70.5 nM in the test with MCF7 [1]; 262 nM in the test on HeLa; 204 nM in the test with CFPAC-1; 372 nM in the test with MOLT-4; 145 nM in the test with T98G. The IC50 with DU-145 was determined as 430 nM; in the test with NCI-H69 it was 41 nM; with DLD-1, 394 nM; in the test on AR-42J cell line it was 219 nM; with ACHN it was 150 nM; with NCI-H460, 449 nM. The IC50 in the test with MCF7 [2] is 200 nM; in the test with IMR-32 (Homo sapiens, IMR-32) it was 73.1 nM; in the test on CHO-K1 (Cricetulus griseus, CHO-K1), 462 nM; in the test on CHO-K1 (cho-k1), 509 nM.

Regarding `COc1cc(C2C(OC(C)=O)C(=O)N2c2ccc3c(c2)OCO3)cc(OC)c1OC` (configuration not stated), the concentration for half-maximal inhibition (IC50) in the test with HCT-116, with MCF7 [1], with HeLa, in the test on CFPAC-1, in the test with MOLT-4 and in the test with T98G was above 10000 nM throughout. The IC50 with DU-145, with DLD-1, with AR-42J cell line, in the test with ACHN, in the test on NCI-H460 and in the test on IMR-32 (imr-32) was above 10000 nM in each case. For the same molecule, the IC50 with CHO-K1 (Cricetulus griseus, CHO-K1) is above 10000 nM.

In the test with IMR-32 (Homo sapiens, IMR-32), `COc1cc(C2C(O)C(=O)N2c2ccc3c(c2)OCO3)cc(OC)c1OC` (configuration not stated) registered an IC50 above 1000 nM.

`COc1ccc2cc(C3C(O)C(=O)N3c3cc(OC)c(OC)c(OC)c3)ccc2c1` (configuration not stated) displayed an IC50 with IMR-32 (Homo sapiens, IMR-32) of 89 nM.

Regarding `COc1ccc(C2C(O)C(=O)N2c2cc(OC)c(OC)c(OC)c2)cc1[N+](=O)[O-]` (configuration not stated), the IC50 was 68.8 nM in the test on HCT-116; 37.1 nM in the test with MCF7 [1]; 40 nM with HeLa; 42.1 nM in the test with CFPAC-1; 74 nM in the test on MOLT-4; 49.8 nM in the test on T98G. The IC50 in the test on DU-145 is 91.9 nM; in the test with NCI-H69, 74 nM; in the test with DLD-1, 59.1 nM; in the test with AR-42J cell line, 212 nM; with ACHN it was 29.2 nM; in the test with NCI-H460, 425 nM. For the same molecule, the concentration for half-maximal inhibition (IC50) was found to be 97 nM with MCF7 [2]; 38 nM in the test with IMR-32 (Homo sapiens, IMR-32); 41.4 nM with IMR-32 (imr-32); 236 nM in the test with CHO-K1 (Cricetulus griseus, CHO-K1); 416 nM in the test on CHO-K1 (cho-k1).
